Reference: patent US8389500B2, “Fused heterocyclic compounds as ion channel modulators” (Gilead Sciences, Inc., priority 2008, dated 2013)

Biological target: T1, wild-type human cardiac sodium channel, hNav1.5 (late sodium current) (Homo sapiens, UniProt Q14524)
T1 construct: host or cells: HEK293
Assay: Late INa screening assay (PatchXpress whole cell patch clamp)
Assay type: cell-based
Settings: HEK293 hNav1.5, late INa generated with 10 μM Tefluthrin (some experiments 50 nM ATX II); for inhibition at 10 µM: 10 μM test compound, read-out: Late INa % blk (10 μM test cmpd); for inhibition at 1 µM: 1 μM test compound, read-out: Late INa % blk (1 μM test cmpd)
Description: The late sodium current (Late INa) and peak sodium current (Peak INa) assays are performed on an automated electrophysiology platform, PatchXpress 7000A (MDS Analytical Technologies, Sunnyvale, Calif.), which uses the whole cell patch clamp technique to measure currents through the cell membrane of up to 16 cells at a time. The assay uses an HEK293 (human embryonic kidney) cell line heterologously expressing the wild-type human cardiac sodium channel, hNav1.5, purchased from Millipore (Billerica, Mass.). No beta subunits were coexpressed with the Na channel alpha subunit. Cells are maintained with standard tissue culture procedures and stable channel expression is maintained with 400 μg/ml Geneticin in the culture medium. […] Experiments are carried out at 24-27° C.
For both the Late INa and Peak INa assays, series resistance compensation is set to 50% and whole-cell compensation is performed automatically. […] Currents through open sodium channels are automatically recorded and stored in the DataXpress2 database (MDS Analytical Technologies, Sunnyvale, Calif.). Analysis is performed using DataXpress2 analysis software and data are compiled in Excel.
Compound stocks are routinely made in glass vials to 10 mM in dimethyl sulfoxide (DMSO). In some cases, when compounds are not soluble in DMSO, they are made in 100% ethanol. Stocks are sonicated as necessary. The extracellular solution for screening Late INa is composed of: 140 mM NaCl, 4 mM KCl, 1.8 mM CaCl2, 0.75 mM MgCl2, and 5 mM HEPES with pH adjusted to 7.4 using NaOH. The extracellular solution for screening Peak INa is composed of: 20 mM NaCl, 120 mM N-methyl-D glucamine, 4 mM KCl, 1.8 mM CaCl2, 0.75 mM MgCl2, and 5 mM HEPES with pH adjusted to 7.4 using HCl. The intracellular solution used to perfuse the inside of the cells for both the Late INa and Peak INa assays contains: 120 mM CsF, 20 mM CsCl, 5 mM EGTA, 5 mM HEPES and pH adjusted to 7.4 with CsOH. […] The 0Na extracellular solution used at the end of each experiment for the Late INa and Peak INa assays to measure baseline current contains: 140 mM N-methyl-D-glucamine; 4 mM KCl; 1.8 mM CaCl2; 0.75 mM MgCl2; 5 mM HEPES and pH was adjusted to 7.4 with HCl.
For the Late INa assay, sodium channels are activated every 10 seconds (0.1 Hz) by depolarizing the cell membrane to −20 mV for 250 milliseconds (ms) from a holding potential of −120 mV. In response to a −20 mV voltage step, typical Nav1.5 sodium currents activate rapidly to a peak negative current and then inactivate nearly completely within […].
All compounds are tested to determine their activity in blocking the late sodium current. Late INa current is generated by adding 10 μM Tefluthrin (pyrethroid) to the extracellular solution while recording Na currents For some experiments, 50 nM ATX II (sea anemone toxin), another late Na activator, was used to generate the late component. […] After establishing the whole cell recording configuration, late INa activators are added to each well 4 times over a 16-17 minute period so that the late component of the Na current reaches a stable value. […] Measurements are made at the end of exposure to the third compound addition and values are normalized to the current level when all Na^+ is removed from the extracellular solution after two additions of ONa-ECF. Results are reported as percent block of late INa

T1 sequence (Q14524 whole entry): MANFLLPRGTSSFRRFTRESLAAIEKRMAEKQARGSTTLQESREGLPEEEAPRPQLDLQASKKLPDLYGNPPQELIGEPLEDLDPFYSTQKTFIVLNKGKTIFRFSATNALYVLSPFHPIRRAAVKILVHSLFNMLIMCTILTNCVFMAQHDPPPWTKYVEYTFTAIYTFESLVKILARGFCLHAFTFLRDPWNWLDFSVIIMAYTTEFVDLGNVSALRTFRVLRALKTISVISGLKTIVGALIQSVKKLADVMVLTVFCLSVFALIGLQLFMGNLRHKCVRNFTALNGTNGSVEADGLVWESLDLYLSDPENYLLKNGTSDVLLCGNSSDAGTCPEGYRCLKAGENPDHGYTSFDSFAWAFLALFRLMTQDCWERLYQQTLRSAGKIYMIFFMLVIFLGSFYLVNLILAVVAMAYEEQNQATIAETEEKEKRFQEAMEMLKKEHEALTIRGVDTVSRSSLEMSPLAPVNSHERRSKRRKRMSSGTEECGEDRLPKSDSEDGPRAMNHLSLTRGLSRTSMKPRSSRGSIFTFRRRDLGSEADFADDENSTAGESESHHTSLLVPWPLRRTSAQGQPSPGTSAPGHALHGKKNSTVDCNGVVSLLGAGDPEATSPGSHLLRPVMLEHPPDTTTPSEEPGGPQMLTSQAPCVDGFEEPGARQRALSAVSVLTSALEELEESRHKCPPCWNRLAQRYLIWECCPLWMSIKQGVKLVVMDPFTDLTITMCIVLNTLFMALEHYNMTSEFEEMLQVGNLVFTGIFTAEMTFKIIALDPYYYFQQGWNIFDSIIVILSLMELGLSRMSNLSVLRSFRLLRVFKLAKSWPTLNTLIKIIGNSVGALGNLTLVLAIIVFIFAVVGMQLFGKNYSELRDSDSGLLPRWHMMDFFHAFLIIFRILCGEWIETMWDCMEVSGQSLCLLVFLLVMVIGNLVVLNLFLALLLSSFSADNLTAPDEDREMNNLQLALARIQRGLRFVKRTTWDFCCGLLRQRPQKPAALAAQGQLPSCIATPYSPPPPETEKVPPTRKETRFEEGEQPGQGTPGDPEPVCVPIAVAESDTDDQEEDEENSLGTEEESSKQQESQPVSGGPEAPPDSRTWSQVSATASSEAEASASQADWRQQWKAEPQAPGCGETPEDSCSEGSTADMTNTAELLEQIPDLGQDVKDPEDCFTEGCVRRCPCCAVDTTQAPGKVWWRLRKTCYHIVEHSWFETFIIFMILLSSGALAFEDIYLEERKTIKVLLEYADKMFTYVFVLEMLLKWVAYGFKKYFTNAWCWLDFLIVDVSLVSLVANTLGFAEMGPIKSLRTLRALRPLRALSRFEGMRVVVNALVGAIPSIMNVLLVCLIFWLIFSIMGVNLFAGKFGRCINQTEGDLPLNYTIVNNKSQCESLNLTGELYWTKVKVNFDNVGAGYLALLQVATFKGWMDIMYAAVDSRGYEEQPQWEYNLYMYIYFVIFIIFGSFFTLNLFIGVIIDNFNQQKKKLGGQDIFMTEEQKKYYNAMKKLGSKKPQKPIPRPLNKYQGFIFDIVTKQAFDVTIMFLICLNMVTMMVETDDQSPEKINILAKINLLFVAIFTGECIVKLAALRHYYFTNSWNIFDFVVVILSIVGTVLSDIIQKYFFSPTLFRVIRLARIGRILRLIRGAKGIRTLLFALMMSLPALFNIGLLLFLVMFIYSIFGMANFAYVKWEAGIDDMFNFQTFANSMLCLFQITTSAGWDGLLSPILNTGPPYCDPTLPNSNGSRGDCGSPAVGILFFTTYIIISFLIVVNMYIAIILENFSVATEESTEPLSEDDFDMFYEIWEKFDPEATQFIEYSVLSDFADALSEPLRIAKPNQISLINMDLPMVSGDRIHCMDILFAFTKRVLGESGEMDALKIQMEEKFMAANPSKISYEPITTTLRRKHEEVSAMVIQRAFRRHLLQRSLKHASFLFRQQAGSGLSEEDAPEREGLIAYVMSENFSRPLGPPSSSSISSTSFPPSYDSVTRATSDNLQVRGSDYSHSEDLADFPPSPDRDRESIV

For `CS(=O)(=O)Nc1ccc(-c2ccc(F)c(F)c2)cc1` [PT-002, N-(3′,4′-difluorobiphenyl-4-yl)methanesulfonamide], which inhibition at 10 µM is on record?
The inhibition at 10 µM was 21.8%.

For `COc1cc(NS(C)(=O)=O)ccc1-c1ccc(C(F)(F)F)cc1` [PT-004, N-[2-methoxy-4′-(trifluoromethyl)biphenyl-4-yl]methanesulfonamide], which inhibition at 10 µM is on record?
The inhibition at 10 µM was 42.8%.

How did the inhibition at 10 µM turn out when `CS(=O)(=O)Nc1ccc(-c2ccc(Cl)c(F)c2)cc1` [PT-005, N-(4′-chloro-3′-fluorobiphenyl-4-yl)methanesulfonamide] was run?
Its inhibition at 10 µM is 20.5%.

Which inhibition at 10 µM does the source give for `CS(=O)(=O)Nc1ccc(-c2ccc(C(F)(F)F)cc2)cc1` [PT-006, N-[4′-(trifluoromethyl)biphenyl-4-yl]methanesulfonamide] here?
The inhibition at 10 µM was 22.7%.

How did the inhibition at 10 µM turn out when `CS(=O)(=O)Nc1ccc(-c2ccc(F)c(Cl)c2)cc1` [PT-007, N-(3′-chloro-4′-fluorobiphenyl-4-yl)methanesulfonamide] was run?
The inhibition at 10 µM was 34.9%.

Which inhibition at 10 µM does the source give for `CS(=O)(=O)Nc1ccc(-c2cccc(OC(F)(F)F)c2)cc1` [PT-008, N-[3′-(trifluoromethoxy)biphenyl-4-yl]methanesulfonamide] here?
The inhibition at 10 µM was 39.4%.

Which inhibition at 10 µM does the source give for `COc1cc(NS(C)(=O)=O)ccc1-c1ccc(OC(F)(F)F)cc1` [PT-009, N-[2-methoxy-4′-(trifluoromethoxy)biphenyl-4-yl]methanesulfonamide] here?
Its inhibition at 10 µM is 20.9%.

How did the inhibition at 10 µM turn out when `COc1cc(NS(C)(=O)=O)ccc1-c1cccc(OC(F)(F)F)c1` [PT-010, N-[2-methoxy-3′-(trifluoromethoxy)biphenyl-4-yl]methanesulfonamide] was run?
Its inhibition at 10 µM is 48.2%.

`COc1cc(NS(C)(=O)=O)ccc1-c1ccccc1OC(F)(F)F` [PT-011, N-[2-methoxy-2′-(trifluoromethoxy)biphenyl-4-yl]methanesulfonamide] was tested. Which inhibition at 10 µM did it give?
Its inhibition at 10 µM is 47.6%.

Which inhibition at 10 µM does the source give for `CS(=O)(=O)Nc1ccc(-c2ccc(Cl)c(F)c2)c(C(F)(F)F)c1` [PT-012, N-[4′-chloro-3′-fluoro-2-(trifluoromethyl)biphenyl-4-yl]methanesulfonamide] here?
The inhibition at 10 µM was 52%.

Which inhibition at 10 µM does the source give for `CS(=O)(=O)Nc1ccc(-c2ccc(OC(F)(F)F)cc2)c(C(F)(F)F)c1` [PT-014, N-[4′-(trifluoromethoxy)-2-(trifluoromethyl)biphenyl-4-yl]methanesulfonamide] here?
The inhibition at 10 µM was 50.5%.

Which inhibition at 10 µM does the source give for `CS(=O)(=O)Nc1ccc(-c2cccc(OC(F)(F)F)c2)c(C(F)(F)F)c1` [PT-015, N-[3′-(trifluoromethoxy)-2-(trifluoromethyl)biphenyl-4-yl]methanesulfonamide] here?
The inhibition at 10 µM was 60.8%.

Which inhibition at 10 µM does the source give for `CS(=O)(=O)Nc1ccc(-c2ccccc2OC(F)(F)F)c(C(F)(F)F)c1` [PT-016, N-[2′-(trifluoromethoxy)-2-(trifluoromethyl)biphenyl-4-yl]methanesulfonamide] here?
The inhibition at 10 µM was 45.8%.

With `CCOC(=O)CN(c1ccc(-c2ccc(Cl)c(F)c2)c(OC)c1)S(C)(=O)=O` [PT-019, ethyl N-(4′-chloro-3′-fluoro-2-methoxybiphenyl-4-yl)-N-(methylsulfonyl)glycinate] as the compound, how does the inhibition at 10 µM read?
The inhibition at 10 µM was 55%.

With `CCOC(=O)CN(c1ccc(-c2cccc(OC(F)(F)F)c2)c(OC)c1)S(C)(=O)=O` [PT-020, ethyl N-[2-methoxy-3′-(trifluoromethoxy)biphenyl-4-yl]-N-(methylsulfonyl)glycinate] as the compound, how does the inhibition at 10 µM read?
Its inhibition at 10 µM is 52.9%.

How did the inhibition at 1 µM turn out when `CS(=O)(=O)Nc1ccc(-c2cccc(OC(F)(F)F)c2)c(Cl)c1` [PT-021, N-[2-chloro-3′-(trifluoromethoxy)biphenyl-4-yl]methanesulfonamide] was run?
Its inhibition at 1 µM is 34%.

What about the inhibition at 10 µM of the same compound?
The inhibition at 10 µM was 77.5%.

How did the inhibition at 10 µM turn out when `CS(=O)(=O)Nc1ccc(-c2ccc(F)c(F)c2)c(Cl)c1` [PT-023, N-(2-chloro-3′,4′-difluorobiphenyl-4-yl)methanesulfonamide] was run?
The inhibition at 10 µM was 48.2%.

`CS(=O)(=O)Nc1ccc(-c2ccc(F)cc2F)c(Cl)c1` [PT-024, N-(2-chloro-2′,4′-difluorobiphenyl-4-yl)methanesulfonamide] was tested. Which inhibition at 10 µM did it give?
Its inhibition at 10 µM is 43.5%.

With `CCOC(=O)CN(c1ccc(-c2ccc(Cl)c(F)c2)c(Cl)c1)S(C)(=O)=O` [PT-025, ethyl N-(2,4′-dichloro-3′-fluorobiphenyl-4-yl)-N-(methylsulfonyl)glycinate] as the compound, how does the inhibition at 10 µM read?
The inhibition at 10 µM was 60%.

How did the inhibition at 10 µM turn out when `CCCS(=O)(=O)Nc1ccc(-c2ccc(Cl)c(F)c2)c(Cl)c1` [PT-027, N-(2,4′-dichloro-3′-fluorobiphenyl-4-yl)propane-1-sulfonamide] was run?
Its inhibition at 10 µM is 55.5%.

Which inhibition at 10 µM does the source give for `CCOC(=O)CN(c1ccc(-c2cccc(OC(F)(F)F)c2)c(Cl)c1)S(C)(=O)=O` [PT-028, ethyl N-[2-chloro-3′-(trifluoromethoxy)biphenyl-4-yl]-N-(methylsulfonyl)glycinate] here?
Its inhibition at 10 µM is 62.1%.

How did the inhibition at 10 µM turn out when `CS(=O)(=O)N(CC(=O)O)c1ccc(-c2cccc(OC(F)(F)F)c2)c(Cl)c1` [PT-029, N-[2-chloro-3′-(trifluoromethoxy)biphenyl-4-yl]-N-(methylsulfonyl)glycine] was run?
The inhibition at 10 µM was 28.4%.

How did the inhibition at 10 µM turn out when `CS(=O)(=O)Nc1ccc(-c2ccc(F)c(Cl)c2)cc1Cl` [PT-030, N-(3,3′-dichloro-4′-fluorobiphenyl-4-yl)methanesulfonamide] was run?
Its inhibition at 10 µM is 41.4%.

How did the inhibition at 10 µM turn out when `COc1cc(NS(C)(=O)=O)ccc1-c1ccc(F)cc1` [PT-031, N-(4′-fluoro-2-methoxybiphenyl-4-yl)methanesulfonamide] was run?
Its inhibition at 10 µM is 17.1%.

How did the inhibition at 10 µM turn out when `COc1cc(NS(C)(=O)=O)ccc1-c1ccc(Cl)cc1` [PT-032, N-(4′-chloro-2-methoxybiphenyl-4-yl)methanesulfonamide] was run?
Its inhibition at 10 µM is 42%.

With `CS(=O)(=O)Nc1ccc(-c2ccc(Oc3ccccc3)cc2)cc1` [PT-033, N-(4′-phenoxybiphenyl-4-yl)methanesulfonamide] as the compound, how does the inhibition at 10 µM read?
Its inhibition at 10 µM is 15.1%.

For `CS(=O)(=O)Nc1ccc(-c2ccccc2F)c(Cl)c1` [PT-035, N-(2-chloro-2′-fluorobiphenyl-4-yl)methanesulfonamide], which inhibition at 10 µM is on record?
Its inhibition at 10 µM is 48.2%.

How did the inhibition at 10 µM turn out when `CS(=O)(=O)Nc1ccc(-c2cccc(C(F)(F)F)c2)c(Cl)c1` [PT-036, N-[2-chloro-3′-(trifluoromethyl)biphenyl-4-yl]methanesulfonamide] was run?
The inhibition at 10 µM was 64.1%.

`CS(=O)(=O)Nc1ccc(-c2ccc(F)cc2)c(Cl)c1` [PT-037, N-(2-chloro-4′-fluorobiphenyl-4-yl)methanesulfonamide] was tested. Which inhibition at 10 µM did it give?
The inhibition at 10 µM was 40.4%.

For `CS(=O)(=O)Nc1ccc(-c2ccc(F)c(Cl)c2)c(Cl)c1` [PT-038, N-(2,3′-dichloro-4′-fluorobiphenyl-4-yl)methanesulfonamide], which inhibition at 1 µM is on record?
Its inhibition at 1 µM is 28.8%.

What about the inhibition at 10 µM of the same compound?
Its inhibition at 10 µM is 71%.

`Cc1cc(NS(C)(=O)=O)ccc1-c1ccc(F)c(Cl)c1` [PT-039, N-(3′-chloro-4′-fluoro-2-methylbiphenyl-4-yl)methanesulfonamide] was tested. Which inhibition at 10 µM did it give?
The inhibition at 10 µM was 62.9%.

Which results are given for `Cc1cc(-c2ccc(Oc3ccccc3)cc2)c(Cl)cc1NS(C)(=O)=O` [PT-041, N-(2-chloro-5-methyl-4′-phenoxybiphenyl-4-yl)methanesulfonamide]?
inhibition at 1 µM: 45%; inhibition at 10 µM: 59.3%

`Cc1cc(-c2ccc(Oc3ccccc3)cc2)ccc1NS(C)(=O)=O` [PT-042, N-(3-methyl-4′-phenoxybiphenyl-4-yl)methanesulfonamide] was tested. Which inhibition at 10 µM did it give?
The inhibition at 10 µM was 25.5%.

Which inhibition at 1 µM does the source give for `CS(=O)(=O)Nc1ccc(-c2ccc(Cl)cc2)c(Cl)c1` [PT-043, N-(2,4′-dichlorobiphenyl-4-yl)methanesulfonamide] here?
The inhibition at 1 µM was 17.4%.

What about the inhibition at 10 µM of the same compound?
Its inhibition at 10 µM is 71.5%.

For `COC(=O)c1ccc(-c2ccc(NS(C)(=O)=O)cc2Cl)cc1` [PT-044, methyl 2′-chloro-4′-[(methylsulfonyl)amino]biphenyl-4-carboxylate], which inhibition at 10 µM is on record?
The inhibition at 10 µM was 50.6%.

Which inhibition at 10 µM does the source give for `CS(=O)(=O)Nc1ccc(-c2ccc(F)cc2Cl)c(Cl)c1` [PT-045, N-(2,2′-dichloro-4′-fluorobiphenyl-4-yl)methanesulfonamide] here?
Its inhibition at 10 µM is 57.5%.
